According to patent US8481536B2, “Benzotriazine inhibitors of kinases” (TargeGen, Inc., priority 2004, dated 2013):

Target: Recombinant human c-Src (Homo sapiens (Human), UniProt P12931)
Experiment: Src kinase inhibition in vitro (luciferase-based residual ATP, KinaseGlo)
Format: biochemical
Conditions: ATP 3 μM, PTK2 substrate, 90 minutes at room temperature
Description: (§1) The ability of compounds of the present invention to inhibit the activity of three groups of kinases was tested. Kinases tested included the src family (primarily src and yes), some angiogenic growth factor receptors (Fgfr1, Vegfr, and Pdgfrβ) and the ephrin, EphB4. All kinase reactions were conducted in 96-well plates with a final reaction volume of 50 ul.
After reacting for about 90 minutes at room temperature, residual ATP was determined using a luciferase-based assay (KinaseGlo, Promega Corp.) as a measure of kinase activity. Data from four wells were then averaged and used to determine IC50 values for the test compounds (Prism software package, GraphPad Software, San Diego Calif.).
(§2) The test results for inhibition of Src kinase are presented in Table 1, and the test results for inhibition of some other kinases (i.e., Yes, EphB4, and Pdgfrβ) are presented in Table 2.

Recombinant human c-Src, sequence (P12931 whole entry, looked up): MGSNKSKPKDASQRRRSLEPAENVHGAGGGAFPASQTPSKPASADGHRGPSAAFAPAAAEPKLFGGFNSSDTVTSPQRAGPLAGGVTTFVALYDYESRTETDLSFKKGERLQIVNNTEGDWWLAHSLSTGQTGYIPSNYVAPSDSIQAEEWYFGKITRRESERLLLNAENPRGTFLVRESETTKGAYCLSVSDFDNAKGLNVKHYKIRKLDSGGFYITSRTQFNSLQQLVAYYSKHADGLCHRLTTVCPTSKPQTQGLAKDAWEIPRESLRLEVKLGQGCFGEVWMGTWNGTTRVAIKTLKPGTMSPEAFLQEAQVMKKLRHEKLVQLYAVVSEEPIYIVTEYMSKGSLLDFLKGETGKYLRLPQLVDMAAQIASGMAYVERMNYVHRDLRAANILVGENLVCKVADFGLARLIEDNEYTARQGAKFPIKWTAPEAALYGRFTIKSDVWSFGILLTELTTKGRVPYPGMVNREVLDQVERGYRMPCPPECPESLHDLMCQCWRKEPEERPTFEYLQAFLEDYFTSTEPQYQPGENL

IC50 [nM] | SMILES
10.2 | Cc1ccccc1-c1cc2nnc(Nc3ccc(S(=O)(=O)NCCN4CCCC4)cc3)nc2cc1C [4-(6-methyl-7-o-tolyl-benzo[1,2,4]triazin-3-ylamino)-N-(2-pyrrolidin-1-yl-ethyl)-benzenesulfonamide]
322 | Cc1cccc(C)c1-c1cc(C)c2nc(Nc3cccc(S(=O)(=O)N4CCN(C)CC4)c3)nnc2c1 [[7-(2,6-dimethyl-phenyl)-5-methyl-benzo[1,2,4]triazin-3-yl]-[3-(4-methyl-piperazine-1-sulfonyl)-phenyl]-amine]
6.8 | CC(=O)Nc1cc(-c2c(C)cccc2C)cc2nnc(Nc3ccc(OCCN4CCCC4)cc3)nc12 [N-{7-(2,6-dimethyl-phenyl)-3-[4-(2-pyrrolidin-1-yl-ethoxy)-phenylamino]-benzo[1,2,4]triazin-5-yl}-acetamide]
20.4 | Cc1cccc(C)c1-c1cc(NS(C)(=O)=O)c2nc(Nc3ccc(OCCN4CCCC4)cc3)nnc2c1 [N-{7-(2,6-dimethyl-phenyl)-3-[4-(2-pyrrolidin-1-yl-ethoxy)-phenylamino]-benzo[1,2,4]triazin-5-yl}-methanesulfonamide]
> 10000 | Cc1cccc(C)c1-c1cc(C)c2nc(Nc3ccccn3)nnc2c1 [[7-(2,6-dimethyl-phenyl)-5-methyl-benzo[1,2,4]triazin-3-yl]-pyridin-2-yl-amine]
66.5 | Cc1cc2nc(Nc3ccc(S(=O)(=O)NCCN4CCCC4)cc3)nnc2cc1-c1ccccc1C(F)(F)F [4-[6-methyl-7-(2-trifluoromethyl-phenyl)-benzo[1,2,4]triazin-3-ylamino]-N-(2-pyrrolidin-1-yl-ethyl)-benzenesulfonamide]
> 10000 | Cc1ccc(C)c(Nc2nnc3cc(-c4c(C)cccc4C)cc(C)c3n2)c1 [(2,5-dimethyl-phenyl)-[7-(2,6-dimethyl-phenyl)-5-methyl-benzo[1,2,4]triazin-3-yl]-amine]
12.3 | Cc1ccc(C#N)cc1-c1cc2nnc(Nc3ccc(S(=O)(=O)NCCN4CCCC4)cc3)nc2cc1C [4-[7-(5-Cyano-2-methyl-phenyl)-6-methyl-benzo[1,2,4]triazin-3-ylamino]-N-(2-pyrrolidin-1-yl-ethyl)-benzenesulfonamide]

Target: Pdgfrβ (Homo sapiens (Human), UniProt P09619)
Sequence (P09619 33-1106): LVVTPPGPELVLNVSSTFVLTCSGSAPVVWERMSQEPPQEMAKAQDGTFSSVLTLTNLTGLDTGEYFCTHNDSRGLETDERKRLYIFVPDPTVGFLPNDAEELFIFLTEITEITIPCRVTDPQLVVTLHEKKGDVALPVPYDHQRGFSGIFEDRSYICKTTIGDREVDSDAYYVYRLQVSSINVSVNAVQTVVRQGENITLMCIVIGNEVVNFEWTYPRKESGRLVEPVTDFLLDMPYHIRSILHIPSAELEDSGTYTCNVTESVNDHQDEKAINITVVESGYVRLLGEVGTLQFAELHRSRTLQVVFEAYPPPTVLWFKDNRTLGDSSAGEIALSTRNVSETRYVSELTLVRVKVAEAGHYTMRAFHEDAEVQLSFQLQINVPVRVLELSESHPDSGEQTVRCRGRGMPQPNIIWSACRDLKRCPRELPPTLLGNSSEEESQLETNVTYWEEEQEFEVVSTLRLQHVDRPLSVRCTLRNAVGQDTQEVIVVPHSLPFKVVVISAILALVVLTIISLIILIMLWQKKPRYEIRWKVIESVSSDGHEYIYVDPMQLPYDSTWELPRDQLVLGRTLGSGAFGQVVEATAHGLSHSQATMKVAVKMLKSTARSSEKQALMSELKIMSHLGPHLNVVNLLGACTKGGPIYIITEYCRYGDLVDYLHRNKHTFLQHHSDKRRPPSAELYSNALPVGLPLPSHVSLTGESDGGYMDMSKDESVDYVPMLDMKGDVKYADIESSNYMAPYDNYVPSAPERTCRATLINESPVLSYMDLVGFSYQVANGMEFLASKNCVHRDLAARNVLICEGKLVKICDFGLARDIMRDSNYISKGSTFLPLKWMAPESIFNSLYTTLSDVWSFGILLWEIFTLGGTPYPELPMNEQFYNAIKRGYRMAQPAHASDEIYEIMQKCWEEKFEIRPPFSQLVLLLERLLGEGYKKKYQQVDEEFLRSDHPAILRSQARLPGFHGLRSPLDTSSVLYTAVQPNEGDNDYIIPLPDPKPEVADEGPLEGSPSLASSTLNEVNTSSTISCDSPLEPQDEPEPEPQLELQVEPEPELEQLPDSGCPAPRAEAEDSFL
Experiment: Pdgfrβ kinase inhibition in vitro (luciferase-based residual ATP)
Format: biochemical
Conditions: 500 nM ATP, PTK2 peptide, 60 minutes at 37 C; read-out: PDGFR IC50
Description: as §1
Pdgfrβ (0.16 ug/well, Panvera/Invitrogen) 500 nM ATP and the PTK2 peptide (700 uM) were combined with compound and reaction buffer as noted above for src. The reaction was incubated for 60 minutes at 37 C, and the residual ATP concentration was determined using the luciferase-based technique also noted above.
as §2

IC50 [nM] | SMILES
2.1 | Cc1cc(-c2cc(O)ccc2Cl)cc2nnc(Nc3ccc(N4CCOCC4)nc3)nc12 [4-chloro-3-[5-methyl-3-(6-morpholin-4-yl-pyridin-3-ylamino)-benzo[1,2,4]triazin-7-yl]-phenol]
24.3 | Cc1ccccc1-c1cc2nnc(Nc3ccc(S(=O)(=O)NCCN4CCCC4)cc3)nc2cc1C [4-(6-methyl-7-o-tolyl-benzo[1,2,4]triazin-3-ylamino)-N-(2-pyrrolidin-1-yl-ethyl)-benzenesulfonamide]
81.3 | Cc1cccc(C)c1-c1cc(C)c2nc(Nc3cccc(S(=O)(=O)N4CCN(C)CC4)c3)nnc2c1 [[7-(2,6-dimethyl-phenyl)-5-methyl-benzo[1,2,4]triazin-3-yl]-[3-(4-methyl-piperazine-1-sulfonyl)-phenyl]-amine]
60 | Cc1cccc(C)c1-c1cc(C)c2nc(Nc3nc(C(=O)NCCN4CCCC4)cs3)nnc2c1 [2-[7-(2,6-dimethyl-phenyl)-5-methyl-benzo[1,2,4]triazin-3-ylamino]-thiazole-4-carboxylic acid (2-pyrrolidin-1-yl-ethyl)-amide]
3.1 | Cc1cc(-c2cc(O)ccc2Cl)cc2nnc(Nc3ccc(S(=O)(=O)N(C)CCN4CCCC4)cc3)nc12 [4-[7-(2-chloro-5-hydroxy-phenyl)-5-methyl-benzo[1,2,4]triazin-3-ylamino]-N-methyl-N-(2-pyrrolidin-1-yl-ethyl)-benzenesulfonamide]
6 | Cc1ccc(Cl)cc1-c1cc2nnc(Nc3ccc(C(=O)N4CCN(C)CC4)cc3)nc2cc1C [{4-[7-(5-chloro-2-methyl-phenyl)-6-methyl-benzo[1,2,4]triazin-3-ylamino]-phenyl}-(4-methyl-piperazin-1-yl)-methanone]
3.7 | Cc1cc2nc(Nc3ccc(C(=O)N4CCN(C)CC4)cc3)nnc2cc1-c1cc(O)ccc1Cl [{4-[7-(2-chloro-5-hydroxy-phenyl)-6-methyl-benzo[1,2,4]triazin-3-ylamino]-phenyl}-(4-methyl-piperazin-1-yl)-methanone]
117 | Cc1cccc(C)c1-c1cc(C)c2nc(Nc3ccc(C(=O)NCCN4CCCC4)o3)nnc2c1 [5-[7-(2,6-dimethyl-phenyl)-5-methyl-benzo[1,2,4]triazin-3-ylamino]-furan-2-carboxylic acid (2-pyrrolidin-1-yl-ethyl)-amide]
50.3 | Cc1cccc(C)c1-c1cc(C)c2nc(Nc3ccc(OCCCN4CCN(C)CC4)cc3)nnc2c1 [[7-(2,6-dimethyl-phenyl)-5-methyl-benzo[1,2,4]triazin-3-yl]-{4-[3-(4-methyl-piperazin-1-yl)-propoxy]-phenyl}-amine]
23.5 | Cc1cc(-c2cc(O)ccc2Cl)cc2nnc(Nc3cccnc3)nc12 [4-chloro-3-[5-methyl-3-(pyridin-3-ylamino)-benzo[1,2,4]triazin-7-yl]-phenol]
3.5 | COc1ccc(Cl)c(-c2cc3nnc(Nc4ccc(C(=O)N5CCN(C)CC5)cc4)nc3cc2C)c1 [{4-[7-(2-chloro-5-methoxy-phenyl)-6-methyl-benzo[1,2,4]triazin-3-ylamino]-phenyl}-(4-methyl-piperazin-1-yl)-methanone]
11.5 | CC(=O)Nc1cc(-c2c(C)cccc2C)cc2nnc(Nc3ccc(OCCN4CCCC4)cc3)nc12 [N-{7-(2,6-dimethyl-phenyl)-3-[4-(2-pyrrolidin-1-yl-ethoxy)-phenylamino]-benzo[1,2,4]triazin-5-yl}-acetamide]
1.2 | Cc1cc(-c2cc(O)ccc2Cl)cc2nnc(Nc3ccc(C(=O)N4CCNCC4)cc3)nc12 [{4-[7-(2-chloro-5-hydroxy-phenyl)-5-methyl-benzo[1,2,4]triazin-3-ylamino]-phenyl}-piperazin-1-yl-methanone]
14.4 | Cc1cc(-c2cc(O)ccc2Cl)cc2nnc(Nc3ccc(C(=O)NCCN4CCCC4)o3)nc12 [5-[7-(2-chloro-5-hydroxy-phenyl)-5-methyl-benzo[1,2,4]triazin-3-ylamino]-furan-2-carboxylic acid (2-pyrrolidin-1-yl-ethyl)-amide]
20.8 | Cc1cc(-c2cc(O)ccc2Cl)cc2nnc(Nc3cccc(N(C)C)c3)nc12 [4-chloro-3-[3-(3-dimethylamino-phenylamino)-5-methyl-benzo[1,2,4]triazin-7-yl]-phenol]
8 | Cc1cc(-c2c(Cl)ccc(O)c2Cl)cc2nnc(Nc3ccc(S(=O)(=O)NCCN4CCCC4)cc3)nc12 [4-[7-(2,6-dichloro-3-hydroxy-phenyl)-5-methyl-benzo[1,2,4]triazin-3-ylamino]-N-(2-pyrrolidin-1-yl-ethyl)-benzenesulfonamide]

IC50 [nM] | SMILES
16.3 | Cc1cccc(C)c1-c1cc(C)c2nc(Nc3cccc(S(N)(=O)=O)c3)nnc2c1 [3-[7-(2,6-dimethyl-phenyl)-5-methyl-benzo[1,2,4]triazin-3-ylamino]-benzenesulfonamide]
15 | Cc1cc(-c2c(Cl)cccc2Cl)cc2nnc(Nc3ccc(OCCN4CCCC4)cc3)nc12 [[7-(2,6-dichloro-phenyl)-5-methyl-benzo[1,2,4]triazin-3-yl]-[4-(2-pyrrolidin-1-yl-ethoxy)-phenyl]-amine]
15.7 | Cc1cccc(C)c1-c1cc(NS(C)(=O)=O)c2nc(Nc3ccc(OCCN4CCCC4)cc3)nnc2c1 [N-{7-(2,6-dimethyl-phenyl)-3-[4-(2-pyrrolidin-1-yl-ethoxy)-phenylamino]-benzo[1,2,4]triazin-5-yl}-methanesulfonamide]
628 | Cc1cccc(C)c1-c1cc(C)c2nc(Nc3ccccc3)nnc2c1 [[7-(2,6-dimethyl-phenyl)-5-methyl-benzo[1,2,4]triazin-3-yl]-phenyl-amine]
5.3 | Cc1cc(-c2cc(O)ccc2Cl)cc2nnc(Nc3cccc(C(=O)NCCN(C)C)c3)nc12 [3-[7-(2-chloro-5-hydroxy-phenyl)-5-methyl-benzo[1,2,4]triazin-3-ylamino]-N-(2-dimethylamino-ethyl)-benzamide]
39.3 | COc1cc2nc(Nc3ccc(S(=O)(=O)NCCN4CCCC4)cc3)nnc2cc1-c1ccccc1C [4-(6-methoxy-7-o-tolyl-benzo[1,2,4]triazin-3-ylamino)-N-(2-pyrrolidin-1-yl-ethyl)-benzenesulfonamide]
5.7 | Cc1cc2nc(Nc3ccc(OCCN4CCCC4)cc3)nnc2cc1-c1cc(O)ccc1Cl [4-chloro-3-{6-methyl-3-[4-(2-pyrrolidin-1-yl-ethoxy)phenylamino]-benzo[1,2,4]triazin-7-yl}-phenol]
7.4 | Cc1cc2nc(Nc3ccc(OCCN4CCCC4)cc3)nnc2cc1-c1cccc(O)c1 [3-{6-methyl-3-[4-(2-pyrrolidin-1-yl-ethoxy)-phenylamino]-benzo[1,2,4]triazin-7-yl}-phenol]
1.9 | Cc1cc2nc(Nc3ccc(S(=O)(=O)NCCN4CCCC4)cc3)nnc2cc1-c1cc(O)ccc1Cl
2.9 | Cc1cc(-c2cc(O)ccc2Cl)cc2nnc(Nc3ccc(S(=O)(=O)CCCN4CCCC4)cc3)nc12
1850 | CC(=O)Nc1cc(-c2c(C)cccc2C)cc2nnc(Nc3ccc(S(=O)(=O)NCCN4CCCC4)cc3)nc12 [N-{7-(2,6-dimethyl-phenyl)-3-[4-(2-pyrrolidin-1-yl-ethylsulfamoyl)-phenylamino]-benzo[1,2,4]triazin-5-yl}-acetamide]
1.7 | Cc1cc(-c2cc(O)ccc2Cl)cc2nnc(Nc3ccc(S(=O)(=O)NCCN4CCCC4)cc3)nc12
41.1 | Cc1cc(O)cc(C)c1-c1cc(C)c2nc(Nc3ccc(OCCN4CCCC4)cc3)nnc2c1
2.8 | Cc1cc(-c2cc(O)ccc2Cl)cc2nnc(Nc3ccc(S(=O)(=O)C4CCNCC4)cc3)nc12 [4-chloro-3-{5-methyl-3-[4-(piperidine-4-sulfonyl)-phenylamino]-benzo[1,2,4]triazin-7-yl}-phenol]
26.1 | Cc1ccc(F)cc1-c1cc2nnc(Nc3ccc(OCCN4CCCC4)cc3)nc2cc1C [[7-(5-fluoro-2-methyl-phenyl)-6-methyl-benzo[1,2,4]triazin-3-yl]-[4-(2-pyrrolidin-1-yl-ethoxy)-phenyl]-amine]
76.3 | Cc1cccc(C)c1-c1cc(C)c2nc(Nc3cccc(OCCCN4CCN(C)CC4)c3)nnc2c1 [[7-(2,6-dimethyl-phenyl)-5-methyl-benzo[1,2,4]triazin-3-yl]-{3-[3-(4-methyl-piperazin-1-yl)-propoxy]-phenyl}-amine]
